According to patent US7855290B2, “Pyridine derivatives and pyrimidine derivatives (3)” (Eisai R&D Management Co., Ltd., priority 2005, dated 2010):

Key:
[1] = tested on: Human umbilical vein endothelial cells (HUVECs); assay: Inhibitory activity against the growth of vascular endothelial cells stimulated with hepatocyte growth factor; format: cell-based; details: HUVEC, HGF stimulated, third day, Cell Counting Kit-8, read-out: IC50 (cell proliferation activity)
Experimental: Human umbilical vein endothelial cells (HUVECs) were isolated according to the reported method (Shin Seikagaku Jikken Koza, “Cell culturing techniques”, p 197-202), and then cultured in a 5% CO2 incubator (37° C.) using EGM-2 medium (purchased from Clonetics) until the cells reached confluency.
HUVECs were suspended in a serum-free medium for endothelial cell culture (SFM, purchased from GIBCO RBL) containing 2% FBS. The cell suspension (2×10^4 cells/ml) was put in a cell culturing 96-well plate (purchased from NUNC, Production No. 167008) at 0.1 ml/well, and then cultured in a 5% CO2 incubator (37° C.) overnight. After the culture, each well was supplied with 50 μl of the test substance diluted with a 2% FBS-containing serum-free medium for endothelial cell culture and 50 μl of HGF (purchased from R&D) diluted at a concentration of 120 ng/ml with a 2% FBS-containing serum-free medium for endothelial cell culture, followed by culturing in a 5% CO2 incubator (37° C.). On the third day after the addition of the test substance, each well was supplied with 10 μl of Cell Counting Kit-8 (purchased from DOJINDO, Production No. 343-07623), and then the plate was incubated in a 5% CO2 incubator (37° C.) for about 2 hours. After the incubation, using a Plate Reader MTP-500 (Corona Electric), the absorbance of each well was determined at a measurement wavelength of 450 nm and a reference wavelength of 660 nm. While defining the absorbance of a well supplied with HGF and no test substance as 100% cell proliferation activity and the absorbance of the well supplied with no test substance and no HGF as 0% cell proliferation activity, the cell proliferation activity ratio (%) was calculated for each cell.

[2] = tested on: Human gastric cancer cells (MKN-45); assay: Inhibitory activity against the proliferation of human gastric cancer cells (MKN-45); format: cell-based; details: 72 h, MKN-45, 1% FBS RPMI1640, 3 days, Cell Counting Kit-8
Experimental: Human gastric cancer cells (MKN-45) were suspended in a 1% FBS-containing RPMI1640 medium (purchased from Sigma). The cell suspension (1×10^4 cells/ml) was added in a 96-well plate for cell culture (purchased from NUNC, Production No. 167008) at 0.1 ml/well, and then cultured in a 5% CO2 incubator (37° C.) overnight. After the culture, each well was supplied with 0.1 ml of a test substance diluted with a 1% FBS-containing RPMI1640 medium, followed by culturing in a 5% CO2 incubator (37° C.) for 3 days. After the culture, each well was supplied with 10 μl of Cell Counting Kit-8 (purchased from DOJINDO, Production No. 343-07623), followed by incubation in a 5% CO2 incubator (37° C.) for about 1.5 hrs. After the incubation, using the Plate Reader MTP-500 (Corona Electric), the absorbance of each well was determined at a measurement wavelength of 450 nm and a reference wavelength of 660 nm.

CN1CCN(C2CCN(C(=O)Nc3cc(Oc4ccc(NC(=O)C5(C(=O)Nc6ccc(F)cc6)CC5)c(F)c4)ccn3)CC2)CC1 [Example 15, N-(2-Fluoro-4-{[2-({[4-(4-methylpiperazin-1-yl)piperidin-1-yl]carbonyl}amino)pyridin-4-yl]oxy}phenyl)-N′-(4-fluorophenyl)cyclopropane-1,1-dicarboxamide]
IC50 [1]: 15 nM
IC50 [2]: 17 nM
